Results as given in article PMC5592152 (Bioorganic & medicinal chemistry letters, 2017).

How the values were obtained:
Assay in all cases: electrophysiological experiments, voltage clamp of oocytes
Assay type in all cases: cell-based
α3β4 nAChR = α3β4 nAChR (Homo sapiens, UniProt P30926+P32297)
α7 nAChR = α7 nAChR (Homo sapiens, UniProt P36544)
α4β2 nAChR = α4β2 nAChR (Homo sapiens, UniProt P17787+P43681)
Chain of α4β2 nAChR (P43681 29-627 limits assumed): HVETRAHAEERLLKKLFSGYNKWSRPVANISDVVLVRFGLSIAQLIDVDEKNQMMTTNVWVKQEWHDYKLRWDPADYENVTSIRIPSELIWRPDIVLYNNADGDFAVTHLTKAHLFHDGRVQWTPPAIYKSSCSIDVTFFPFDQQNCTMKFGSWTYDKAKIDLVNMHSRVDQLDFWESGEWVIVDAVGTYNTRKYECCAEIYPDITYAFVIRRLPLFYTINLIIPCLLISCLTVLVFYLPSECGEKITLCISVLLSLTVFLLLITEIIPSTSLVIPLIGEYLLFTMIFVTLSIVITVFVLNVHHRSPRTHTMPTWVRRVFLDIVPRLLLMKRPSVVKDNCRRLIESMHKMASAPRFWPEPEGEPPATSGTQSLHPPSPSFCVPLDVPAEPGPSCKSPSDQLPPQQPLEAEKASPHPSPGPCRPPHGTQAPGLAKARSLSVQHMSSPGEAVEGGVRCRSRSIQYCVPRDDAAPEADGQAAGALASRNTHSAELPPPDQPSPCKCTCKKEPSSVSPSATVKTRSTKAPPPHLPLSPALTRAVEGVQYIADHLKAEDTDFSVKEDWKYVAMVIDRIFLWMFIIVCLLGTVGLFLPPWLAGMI
Chain of α4β2 nAChR (P17787 26-502): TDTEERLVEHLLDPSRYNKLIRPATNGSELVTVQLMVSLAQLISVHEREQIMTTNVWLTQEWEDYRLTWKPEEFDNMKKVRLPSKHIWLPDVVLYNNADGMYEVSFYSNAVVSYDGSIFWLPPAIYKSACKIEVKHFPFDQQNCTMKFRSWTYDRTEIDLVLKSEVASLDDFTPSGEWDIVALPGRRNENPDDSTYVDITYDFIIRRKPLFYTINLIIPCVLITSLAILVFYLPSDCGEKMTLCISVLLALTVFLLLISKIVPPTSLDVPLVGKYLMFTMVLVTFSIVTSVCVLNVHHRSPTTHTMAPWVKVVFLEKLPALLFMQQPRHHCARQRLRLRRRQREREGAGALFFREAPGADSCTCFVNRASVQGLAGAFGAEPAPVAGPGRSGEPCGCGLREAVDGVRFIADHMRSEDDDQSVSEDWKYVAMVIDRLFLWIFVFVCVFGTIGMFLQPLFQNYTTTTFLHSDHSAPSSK

Chain of α3β4 nAChR (P32297 32-505): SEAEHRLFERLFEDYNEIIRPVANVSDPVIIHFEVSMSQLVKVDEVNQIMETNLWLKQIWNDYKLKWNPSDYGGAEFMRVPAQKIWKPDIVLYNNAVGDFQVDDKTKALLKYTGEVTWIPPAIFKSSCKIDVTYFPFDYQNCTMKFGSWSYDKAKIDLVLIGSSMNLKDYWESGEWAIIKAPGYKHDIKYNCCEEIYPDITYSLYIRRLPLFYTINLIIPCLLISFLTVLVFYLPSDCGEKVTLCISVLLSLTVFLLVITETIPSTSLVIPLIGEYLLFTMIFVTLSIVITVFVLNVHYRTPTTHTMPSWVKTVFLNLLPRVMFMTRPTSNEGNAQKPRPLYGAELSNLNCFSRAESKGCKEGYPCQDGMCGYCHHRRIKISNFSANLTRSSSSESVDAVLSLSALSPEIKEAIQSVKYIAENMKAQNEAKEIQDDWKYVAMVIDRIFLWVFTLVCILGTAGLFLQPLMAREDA
Chain of α3β4 nAChR (P30926 22-498): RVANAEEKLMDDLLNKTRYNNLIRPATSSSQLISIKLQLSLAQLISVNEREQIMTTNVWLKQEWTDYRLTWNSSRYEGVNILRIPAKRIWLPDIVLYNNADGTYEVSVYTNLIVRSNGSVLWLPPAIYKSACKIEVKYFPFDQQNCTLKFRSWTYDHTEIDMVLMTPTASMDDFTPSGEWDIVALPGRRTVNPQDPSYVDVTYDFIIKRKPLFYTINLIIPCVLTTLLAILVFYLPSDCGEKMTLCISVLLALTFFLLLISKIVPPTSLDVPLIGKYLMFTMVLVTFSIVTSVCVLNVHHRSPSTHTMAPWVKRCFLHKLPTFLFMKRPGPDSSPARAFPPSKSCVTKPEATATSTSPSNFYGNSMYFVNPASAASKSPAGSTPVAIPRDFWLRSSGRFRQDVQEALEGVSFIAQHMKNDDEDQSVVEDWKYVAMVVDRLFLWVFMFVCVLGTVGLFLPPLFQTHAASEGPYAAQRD
Chain of α7 nAChR (P36544 23-502): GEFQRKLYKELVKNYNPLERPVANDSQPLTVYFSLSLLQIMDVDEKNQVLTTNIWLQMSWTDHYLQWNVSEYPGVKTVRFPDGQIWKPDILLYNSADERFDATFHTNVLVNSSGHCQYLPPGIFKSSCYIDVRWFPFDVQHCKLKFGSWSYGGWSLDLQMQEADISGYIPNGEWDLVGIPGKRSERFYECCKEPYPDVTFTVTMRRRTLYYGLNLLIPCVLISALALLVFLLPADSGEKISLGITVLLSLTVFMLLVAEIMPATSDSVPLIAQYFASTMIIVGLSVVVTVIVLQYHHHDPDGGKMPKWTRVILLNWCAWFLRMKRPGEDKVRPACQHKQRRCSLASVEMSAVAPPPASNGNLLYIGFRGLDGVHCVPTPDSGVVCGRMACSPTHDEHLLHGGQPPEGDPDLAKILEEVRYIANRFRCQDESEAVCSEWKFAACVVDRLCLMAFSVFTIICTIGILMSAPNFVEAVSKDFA

## CN1CCC=C(c2cnc(F)c(-c3ccccc3)c2)C1 [Compound 3a]
α3β4 nAChR; 100 μM for α3β4, normalized to control ACh response
  agonist activity: no significant agonist activity
α3β4 nAChR; compound at 100 μM, with ACh 100 μM
  antagonist activity: significantly antagonized
α7 nAChR; 60 μM for α7, normalized to control ACh response
  agonist activity: no significant agonist activity
α7 nAChR; compound at 100 μM, with ACh 60 μM
  antagonist activity: no significant antagonist activity
α4β2 nAChR; 30 μM for α4β2, normalized to control ACh response
  agonist activity: no significant agonist activity
α4β2 nAChR; compound at 100 μM, with ACh 30 μM
  antagonist activity: no significant antagonist activity
